Measurements from ChEMBL document CHEMBL1153882, “Prediction of convulsant activity of gases and vapors” (2009).

Species: Rattus norvegicus
Assay: Convulsant activity in Sprague-Dawley rat assessed as partial pressure in atmosphere at which convulsion takes place
Type: functional

| SMILES | log(1/CON) |
| --- | --- |
| FC(F)(Cl)OC(F)(Cl)C(F)(F)F (centres undefined) | 0.71 |
| CC(F)(F)C(F)(F)F | 0.02 |
| FC(F)(F)COC(F)(F)Cl | 1.63 |
| FC(F)(F)C(F)(Cl)C(F)(F)F | -0.26 |
| FC(F)OC(F)(Cl)C(F)(F)F (centres undefined) | 0.84 |
| FC(F)(F)C(F)(F)C(F)(F)C(F)(F)Br | 0.59 |
| FC(F)(Cl)C(F)(Cl)C(F)(Cl)C(F)(F)Cl (centres undefined) | 2.52 |
| FC(F)(Cl)C(F)(Cl)C(F)(F)Cl | 1.31 |
| FC(F)(Br)C(F)(F)C(F)(F)C(F)(F)Br | 1.86 |
| FC(F)C(F)(F)C(F)(F)C(F)(F)C(F)(F)C(F)(F)Br | 1.68 |
| FC(Cl)(Cl)OC(F)(F)C(F)(F)Cl | 1.36 |
| FCOC(F)(F)C(C(F)(F)F)C(F)(F)F | 1.43 |
| FC(F)(F)c1cc(C(F)(F)F)cc(C(F)(F)F)c1 | 1.85 |
| FC(C(F)C(F)(F)C(F)(F)C(F)(F)F)C(F)(F)F (centres undefined) | 2.31 |
| FC(F)(Cl)OC(F)(F)C(F)(F)Cl | 0.68 |
| FC(F)(Cl)OC(F)(F)C(F)(Cl)Cl | 1.52 |
| FC(F)(F)C(F)(Br)C(F)(F)F | 0.13 |
| FC(F)(F)C(F)(Cl)C(F)(Cl)C(F)(F)F (centres undefined) | 1.04 |
| COC(F)(F)C(F)(C(F)(F)F)C(F)(F)F | 0.67 |
| FC(F)(Cl)C(F)(Cl)Cl | 1.36 |
| Fc1ccc(F)cc1 | 2.22 |
| COC(F)(F)C(F)(F)C(F)(F)C(F)(F)F | 0.67 |

| SMILES | log(1/CON) |
| --- | --- |
| FC(F)C(F)(F)C(F)(F)C(F)(F)F | 0.12 |
| FC1(F)C(F)(F)[C@@](F)(Cl)[C@@]1(F)Cl | 1.41 |
| FC(F)(F)C(F)(F)C(F)(F)Br | 0.03 |
| FC(F)(Cl)OC(Cl)(Cl)C(F)(F)F | 1.61 |
| FC(F)(F)COC(F)(F)F | 0.66 |
| FC(F)OC(F)(C(F)F)C(F)(F)F (centres undefined) | 1.25 |
| FC1(F)C(F)(F)C(F)(Cl)C1(F)Cl (racemic) | 1.26 |
| FC1(F)C(F)(F)[C@@](F)(Cl)[C@]1(F)Cl (relative stereo) | 1.19 |
| FC(F)(F)C(F)(F)Br [BROMOPENTAFLUOROETHANE] | 0.02 |
| FC(F)(F)C(F)(F)Cl [CHLOROPENTAFLUOROETHANE] | -0.32 |
| C1CCCCCC1 [CYCLOHEPTANE] | 2.34 |
| C1CCCCC1 [CYCLOHEXANE] | 1.66 |
| C1CCCCCCC1 [CYCLOOCTANE] | 2.82 |
| FC(F)(Br)Br [DIBROMODIFLUOROMETHANE] | 1.59 |
| FC(F)(Cl)C(F)(F)Cl [DICHLOROTETRAFLUOROETHANE] | 0.41 |
| FC(F)(F)COCC(F)(F)F [FLUROTHYL] | 2.81 |
| CCCCCCCCC [NONANE] | 2.8 |
| CCCCCCCC [OCTANE] | 2.18 |
| CCCCC [PENTANE] | 1.16 |
| FC1(F)C(F)(F)C(F)(F)C1(F)F [PERFLUOROCYCLOBUTANE] | 0.01 |
| Fc1c(F)c(F)c(C(F)(F)F)c(F)c1F [PERFLUOROTOLUENE] | 3.46 |
| FC(F)(F)C(F)(F)C(F)(F)F [PERFLUTREN] | -0.88 |
